Experiments:
nails = assay: In vivo comparison of hexanal composition with citral composition, one hand each; parameters: species or system people; details: same concentrations, panel of 22, four weeks
Source text: The composition of example 1 and also a composition 1a identical to that of example 1, but in which the hexanal has been replaced by citral, in the same concentrations, were the subject of in vivo tests on a new panel of 22 people under the same conditions as those of the tests from example 1. Each person applied the composition with hexanal to the nails of one hand, and the composition with citral to the nails of the other hand. The right hand/left hand choice was random.

[1] = Aging and yellowing tests; type: physicochemical
Method: Various aliphatic aldehydes were incorporated into a cosmetic composition, having a formulation corresponding to example 2, at concentrations respectively of 0.001%, 0.002%, 0.005% and 0.01%.
These were methylbutyraldehyde (by way of comparison), hexanal, nonanal, trans-4-decenal, undecanal and undecylenic aldehyde.
The aging, and in particular the tendency toward yellowing, of each composition were tested. The various tests performed comprise holding for one month in an oven at 45° C. and four months in an oven at 50° C., and also exposure to “SUNTEST CPS+”, i.e. in a sealed chamber, regulated at 50° C. under a 500 Watt/m^2 UV/visible lamp for 3×10 hours.
The yellowing was evaluated relative to control compositions having identical formulations, kept at room temperature (20-25° C.), in the dark, for the same duration.

fingernails = assay: In vivo tests of efficacy on a panel of people, polish applied to nails; details: hexanal 0.05% by weight, panel of 22, four weeks
Source text: The composition from example 1 was the subject of in vivo tests on a panel of 22 people aged at least 30 years old, over four weeks, in order to evaluate the efficacy and tolerance. […] The polish was applied under normal usage conditions (namely three applications per week).
The marks of general satisfaction with the cosmetic composition oscillated between 16.9 and 18.3/20.
The marks of general satisfaction with the cosmetic composition oscillated between 16 and 17.3/20.

[2] = 0.01% by weight in composition, aging tests relative to controls
[3] = 0.01% in composition, one month in an oven at 45° C., relative to controls at room temperature in the dark

With `CCCCCC=O` [hexanal] the “Superiority to citral in improvement of brittle nails” value (nails) was “+10%”, the “Superiority to citral in improvement of nail hardness” value (nails) was “+8.5%” and the “Superiority to citral in improvement of nail weakness” value (nails) was “+18%”. For the same compound, the Yellowing [1, 2] was “did not exhibit yellowing” and the “Subjects who noticed an overall improvement in the quality of their nails” value (fingernails) was “more than 90%”.
For `C=CCCCCCCCCC=O` [undecylenic aldehyde, 10-undecenal], the Yellowing [1, 3] was “exhibited yellowing”.
In the case of `CCCCCCCCCCC=O` [undecanal], the Yellowing [1, 2] is reported as “did not exhibit yellowing”.
In the case of `CCCCCCCCC=O` [nonanal], the Yellowing [1, 2] is reported as “did not exhibit yellowing”.
In the case of “methylbutyraldehyde [reference compound]”, the Yellowing [1, 3] is reported as “exhibited yellowing”.
In the case of `CCCCC/C=C/CCC=O` [trans-4-decenal], the Yellowing [1, 2] is reported as “did not exhibit yellowing”.

Source: patent publication US9211242B2, “Nail-hardening cosmetic composition, use of aldehydes to harden and strengthen nails, and method for applying same” (FIABILA, priority 2009, dated 2015)
